Blank lines part the entries; values can stand above or below the compound they belong to. *1 amine or outer side, *2 acyl side, *3 side chain or, on linkers, in order; H or OH if unused. Where a SMILES comes first, the peptide text is derived from it. [ ]: non-standard residue; d: D form. The star is where a group is joined. X2 = O=C(C(=O)[*:2])[C@H](Cc1ccccc1)N[*:1]; NH(4-phenylbutyl) = c1ccc(CCCCN*)cc1; X1 = C[C@H](N[*:1])C(=O)C(=O)[*:2]; AMC = Cc1cc(=O)oc2cc(N*)ccc12
Key:
Parkin [1] = assay: Parkin recruitment to mitochondria, subcellular fractionation and immunoblot; format: cell-based, human; conditions: HEK293 T-REx PINK1 cells, HA-Parkin-IRES-GFP; 5 μM compound 5, CCCP 10 μM or Antimycin A 30 μM
Description: (§1) Inducible stable Flp-In HEK293 T-REx cells expressing PINK1 were described previously.[33] HEK293 T-REx PINK1 and HEK293T cells were grown in DMEM (Gibco) supplemented with 10% (v/v) fetal bovine serum (ThermoFisher), 1% (v/v) GlutaMAX (Gibco), 1% (v/v) sodium pyruvate (Gibco), 125 μg/mL hygromycin (Invitrogen), and 10 μg/mL blasticidin (Gibco) or DMEM supplemented with 10% (v/v) fetal bovine serum, respectively, at 37 °C in 5% (v/v) CO2. For microscopy, cells were seeded on poly-L-lysine (Sigma)-coated slides. Transient plasmid transfections were performed using 25 kDa linear polyethylenimine (Polysciences). Plasmid (100 ng) encoding HA-Parkin-IRES-GFP, mito-mCherry or Parkin-mEGFP, or 500 ng plasmid encoding PGAM5-FLAG were used per 6-well. Total transfected DNA was 2 μg/well. For siRNA transfection, 2 × 10^5 cells were seeded per 6-well and on the next day transfected with 20 nM siRNA-oligonucleotide using lipofectamine RNAiMAX (ThermoFisher). Cells were analyzed 27 h post-transfection or five days post-siRNA-transfection. HEK293 T-REx PINK1 cells were induced with 0.3 μg/mL doxycycline for 24 h before further processing. Hoechst staining (1 μg/mL) was done immediately before adding treatment to the cells. Treatments were administered for the indicated times before processing; CCCP (Sigma) was always used as 10 μM for 3 h and Antimycin A (Sigma) as 30 μM for 3 h.
Unless mentioned otherwise, all steps were performed at 4 °C. For subcellular fractionation to separate cellular content into cytosolic and mitochondrial fractions, cells were washed with PBS, harvested in PBS-EDTA (1 mM EDTA, 0.2 g/L D-glucose), and centrifuged at 500 × g for 5 min. […]
For immunoblot analysis in other cases, cells were either processed as described above or washed with PBS and directly lysed with Tris-glycine SDS-PAGE sample buffer and heated for 15 min at 65 °C. […] For quantification, ImageJ was used (http://rsb.info.nih.gov/ij/). […]

Parkin [2] = assay: Parkin recruitment to mitochondria and mitochondrial morphology, fluorescence microscopy; format: cell-based, human; conditions: HEK293 T-REx PINK1 cells, 3 h; 5 μM compound 5, CCCP or Antimycin A, vs DMSO
Description: as §1
For fixation, cells were incubated for 15 min with 4% formaldehyde (16% formaldehyde diluted in PBS, Thermo Scientific) and washed in PBS. The cover glasses were mounted with Fluoromount-G (Southern Biotech) on microscope slides. […] Parkin recruitment events to the mitochondria were counted by hand throughout each z-stack and cell. […] JC-1 images were handled as summed intensity z-stack projections, as well as subjected to flatfield correction and subtraction of background before measuring the fluorescence levels normalized to the number of cell nuclei. The fluorescence intensity ratio between the red and green signal was calculated and compared to DMSO as a ratio of 1. Data were evaluated using Excel and GraphPad Prism 6.

PARL [3] = target: T1, PARL (Homo sapiens, UniProt Q9H300); assay: In vitro assay for PARL activity, cleavage of AMC substrates by liposome-embedded PARL; format: biochemical; set-up: hexahistidine tag (C); made in house; host or cells: continuous-exchange cell-free expression in bacterial lysates with T7 polymerase (CUBE biotech), into liposomes; conditions: mature PARL in liposomes, S277A catalytic mutant as control
T1 sequence (Q9H300 53-379): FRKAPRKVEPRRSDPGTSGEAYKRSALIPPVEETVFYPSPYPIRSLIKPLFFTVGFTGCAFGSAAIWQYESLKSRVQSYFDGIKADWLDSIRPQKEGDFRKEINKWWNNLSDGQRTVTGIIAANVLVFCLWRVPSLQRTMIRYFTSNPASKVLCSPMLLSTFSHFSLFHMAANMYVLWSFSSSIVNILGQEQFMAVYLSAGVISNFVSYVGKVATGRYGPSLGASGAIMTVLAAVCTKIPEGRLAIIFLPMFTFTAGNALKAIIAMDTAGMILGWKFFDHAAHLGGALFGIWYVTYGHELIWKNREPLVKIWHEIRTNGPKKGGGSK
Description: Liposome preparation and cell-free protein expression of PARL were carried out essentially as described previously.[27] Liposomes resembling the lipid composition of the IMM were prepared by mixing 40% DOPC (1,2-dioleoyl-sn-glycero-3-phosphocholine), 33.8% DOPE (1,2-dioleoyl-sn-glycero-3-phosphoethanolamine), 18% CL(18:1)4 (1′,3′-bis[1,2-dioleyl-sn-glycero-3-phospho]-glycerol), 3% DOPS (1,2-dioleoyl-sn-glycero-3-phospho-L-serine), 5% soy-PI (L-α-phosphatidylinositol), and 0.2% rhodamine-PE (1,2-dioleoyl-sn-glycero-3-phosphoethanolamine-N-(lissamine rhodamine B sulfonyl)) in chloroform, followed by the evaporation of chloroform by a stream of nitrogen gas and drying in a vacuum chamber (Binder) for 1 h. […] Concentration of PARL was determined by absorption at 280 nm.
The PARL activity assay in vitro was carried out in 5 mM Tris, 5 mM Mg(OAc)2, 25 μM Zn(OAc)2, 0.1 μg/μL BSA, 30% DMSO, pH 8.0 using PARL in liposomes at 0.05 mg/mL. Compound 3 and 4 were used at 5 μM final concentration based on quantitative amino acid analysis. […] The cleavage reaction was carried out at 37 °C in 96-well black HTS plates (Greiner Bio-One) in a plate reader (Tecan Infinite M1000) with excitation and emission wavelengths set to 355 and 450 nm, respectively. Data were evaluated using Excel (Microsoft) and GraphPad Prism 9 (GraphPad Software, Inc.).

PARL [4] = target: T1, PARL; assay: PARL inhibition in vitro, PARL in liposomes with substrate compound 4; format: biochemical; set-up: hexahistidine tag (C); made in house; host or cells: continuous-exchange cell-free expression in bacterial lysates with T7 polymerase (CUBE biotech), into liposomes; conditions: recombinant mature PARL in liposomes, 100 μM substrate compound 4, mean ± SEM of three or four measurements
Description: Liposome preparation and cell-free protein expression of PARL were carried out essentially as described previously.[27] Liposomes resembling the lipid composition of the IMM were prepared by mixing 40% DOPC (1,2-dioleoyl-sn-glycero-3-phosphocholine), 33.8% DOPE (1,2-dioleoyl-sn-glycero-3-phosphoethanolamine), 18% CL(18:1)4 (1′,3′-bis[1,2-dioleyl-sn-glycero-3-phospho]-glycerol), 3% DOPS (1,2-dioleoyl-sn-glycero-3-phospho-L-serine), 5% soy-PI (L-α-phosphatidylinositol), and 0.2% rhodamine-PE (1,2-dioleoyl-sn-glycero-3-phosphoethanolamine-N-(lissamine rhodamine B sulfonyl)) in chloroform, followed by the evaporation of chloroform by a stream of nitrogen gas and drying in a vacuum chamber (Binder) for 1 h. Dried lipids were dissolved in buffer (5 mM Tris/HCl, pH 8.5, 10 mM KOAc) and extruded 21 times through a mini extruder (Avanti Polar Lipids) using a polycarbonate membrane with a pore size of […]. […] The PARL-containing liposomes were purified by a step-wise sucrose step-gradient centrifugation (0, 15, 30, and 40% sucrose in 5 mM HEPES pH 7.5 with 25 mM NaCl) for 2 h at 200,000 × g. Soluble proteoliposomes were harvested at the 0%/15% sucrose interface after the centrifugation. Concentration of PARL was determined by absorption at 280 nm.
PARL inhibition in vitro was measured in 5 mM Tris, 5 mM Mg(OAc)2, 25 μM Zn(OAc)2, 0.1 μg/μL BSA, 10% DMSO, pH 8.0 using PARL in liposomes at 0.07 mg/mL and compound 4 at 100 μM final concentration. Inhibitor concentrations were determined by quantitative amino acid analysis. Inhibitors in DMSO were dissolved at the respective concentrations into the reaction buffer by vigorous mixing at 1000 rpm, 37 °C for 40 min and then pre-incubated with PARL in liposomes at 37° for 1 h. The cleavage reaction was started by adding compound 4 and carried out at 37 °C in 96-well black HTS plates (Greiner Bio-One). Fluorescence was read in a plate reader (Tecan Infinite M1000) with excitation and emission wavelengths set to 355 and 450 nm, respectively. Data were evaluated using Excel (Microsoft) and GraphPad Prism 9 (GraphPad Software, Inc.). The data shown are representative of at least three independent experiments.

PARL [5] = target: T1, PARL; assay: PARL inhibition assay in cells: cleavage of overexpressed PGAM5-Myc by tetracycline-induced PARL-FLAG, immunoblot; format: cell-based; set-up: expressed in transfected cells; host or cells: Flp-In HEK293 T-REx PARL knockout cells; conditions: Flp-In HEK293 T-REx PARL KO cells with inducible PARL-FLAG, PGAM5-Myc, mean ± SEM of four or three experiments; read-out: Apparent IC50, PGAM5 cleavage by overexpressed PARL
Description: PARL inhibition assays in cells were carried out in Flp-In HEK293 T-REx PARL knockout cells stably transfected with tetracycline inducible PARL-FLAG grown in DMEM (Gibco) supplemented with 10% (v/v) tetracycline-free fetal bovine serum (Clontech). For the inhibition assay, 0.7 × 10^6 cells were seeded per well of a 6-well plate, and the next day transfected with 5 μg of human PGAM5-Myc in pcDNA and 15 μg of branched polyethylenimine (Polysciences) per well. Four hours after transfection, the PARL expression was induced by adding tetracycline to 1 μg/mL. Eight hours after transfection, the inhibitors were added to each well in different concentrations in serum-free DMEM with 1% DMSO.
For immunoblot analysis of the effects of PARL inhibitors on PGAM5 cleavage, after overnight incubation with inhibitors, cells from each well were harvested in 1× SDS sample buffer containing 20 mM MgCl2 and Pierce universal nuclease (250 U/mL, Thermo Scientific) and heated to 65 °C for 10 min. Loading volumes for SDS-PAGE were adjusted by measuring total protein concentration in the lysates with Pierce 660 nm Protein Assay Reagent and Ionic Detergent Compatibility Reagent for Pierce 660 nm Protein Assay Reagent (Thermo Scientific). Samples were resolved by SDS-PAGE using a 12% polyacrylamide gel (Biorad) and electrotransferred onto an Immobilon PVDF membrane (Merck Millipore). Blots were blocked using casein blocker (Thermo Scientific) and hPGAM5 was labeled by rabbit anti-Myc antibody (Cell Signaling Technology, cat. #2278, dilution 1:1000) at 4 °C overnight. Blots were washed three times with TBS-T and incubated with IRDye 800 CW donkey anti-rabbit antibody (Invitrogen, cat. #SA5-10044, dilution 1:10,000) at room temperature for 2 h. Membranes were then again washed three times with TBS-T and one time with TBS. Fluorescence emission at […] of dried membranes was scanned on Odyssey CLx (LI-COR). Cleavage efficiency and inhibition were analyzed as described[23] using Image Studio Lite (LI-COR), Excel (Microsoft) and GraphPad Prism 9 (GraphPad Software, Inc.).

Compound: CCCCCC[C@H]1C(=O)O[C@H](C)[C@H](NC(=O)c2cccc(NC=O)c2O)C(=O)O[C@@H](C)[C@@H]1OC(=O)CC(C)C [Antimycin A]
Parkin recruitment to the mitochondrial fraction (Parkin [1]): activates the PINK1/Parkin pathway
Recruitment of Parkin-mEGFP to mitochondria (microscopy) (Parkin [2]): not significantly different from Parkin recruitment under DMSO conditions

Compound: CC(=O)N[C@@H](C)C(=O)N[C@H](C(=O)N[C@@H](Cc1ccccc1)C(=O)N[C@@H](CC(C)C)C(=O)N[C@@H](C)C(=O)Nc1ccc2c(C)cc(=O)oc2c1)C(C)C [compound 3, AcAVFLA-4mc] (Ac-AVFLA-{AMC})
Cleavage of substrate by liposome-embedded PARL (PARL [3]): are cleaved by liposome-embedded PARL but not its catalytic mutant

IC50 (PARL [4]): 0.08 µM
IC50 (PARL [5]): 3.2 µM
Compound: CC(=O)N[C@@H](CCCNC(=N)N)C(=O)N[C@@H](CCCNC(=N)N)C(=O)N[C@@H](C)C(=O)N[C@H](C(=O)N[C@@H](Cc1ccccc1)C(=O)N[C@@H](CC(C)C)C(=O)N[C@@H](C)C(=O)C(=O)NCCCCc1ccccc1)C(C)C [compound 6] (Ac-RRAVFL[X1]-{NH(4-phenylbutyl)})

Compound: CC[C@H](C)[C@H](NC(=O)[C@H](CCCCN)NC(=O)[C@H](Cc1ccccc1)NC(=O)[C@H](CCCNC(=N)N)NC(=O)[C@H](CCCNC(=N)N)NC(C)=O)C(=O)N[C@@H](Cc1ccccc1)C(=O)C(=O)NCCCCc1ccccc1 [compound 7] (Ac-RRFKI[X2]-{NH(4-phenylbutyl)})
IC50 (PARL [4]): 1.04 µM

Source: publication PMC9841525, “Chemical Blockage of the Mitochondrial Rhomboid Protease PARL by Novel Ketoamide Inhibitors Reveals Its Role in PINK1/Parkin-Dependent Mitophagy” (Journal of Medicinal Chemistry, 2022)
